Assay results reported in patent EP1096933B1, “USE OF AN INHIBITOR OF CYTOCHROME P450 OPTIONALLY COMBINED WITH AN ANTIFUNGAL AGENT FOR TREATING MYCOSES” (priority 1998, dated 2000).
Like-named read-outs stand apart in the source and are kept apart here.

Columns and labels:
Assay in all cases: growth of strains streaked on Sabouraud agar containing the products
Assay type in all cases: cell-based
[1] = test system: Trichophyton mentagrophytes; conditions: Tric.Mentagophytes; for activity at 20 µg/mL: read-out: % DE CROISSANCE; for inhibition at 2 µg/mL / inhibition at 10 µg/mL / inhibition at 20 µg/mL / inhibition at 50 µg/mL: read-out: inhibition de la croissance
Description: (§1) Ces molécules ont été incorporées dans un milieu gélosé dit de Sabouraud (peptone 10g/l, glucose 10 g/l, gomme agar 15 g/l).
(§2) Des souches de diverses espèces de champignons ont été ensemencées par stries par la méthode de Stires.
(§3) Le pourcentage de croissance a été mesuré au cours du temps, pour des périodes allant jusqu'à 21 jours, pour certaines des souches testées.
(§4) Les quantités de pipéronyl butoxyde, et de cyclopyroxolamine utilisées sont identiques et sont de 10 ou 20 µg/ml dans le cas de l'association entre ces deux composés.
(§5) Dans le cas de l'association entre le pipéronyl butoxyde et l'éconazole, elles sont respectivement de 10 ou 20 µg/ml de pipéronyl butoxyde et de 1 µg/ml d'éconazole.
(§6) Des souches appartenant aux espèces suivantes ont été testées: Microsporum canis, Trichophyton rubrum, Trichophyton interdigitale, Trichophyton mentagrophytes, Microsporum persicolor, Epidermophyton floccosum, Trichophyton violaceum et Trichophyton soudanense.
(§7) L'activité du pipéronyl butoxyde seul a été testée à diverses concentrations, comme indiqué dans le tableau 1 sur le milieu de Sabouraud, dépourvu de tout autre fongicide.

Microsporum canis = conditions: for activity at 20 µg/mL: read-out: % DE CROISSANCE; for inhibition at 2 µg/mL / inhibition at 10 µg/mL / inhibition at 20 µg/mL / inhibition at 50 µg/mL: Micro. Canis, read-out: inhibition de la croissance
Description: as §1, §2, §3, §4, §5, §6, §7

[2] = test system: Trichophyton interdigitale; conditions: Tric.Interdigitale; for activity at 20 µg/mL: read-out: % DE CROISSANCE; for inhibition at 2 µg/mL / inhibition at 10 µg/mL / inhibition at 20 µg/mL / inhibition at 50 µg/mL: read-out: inhibition de la croissance
Description: as §1, §2, §3, §4, §5, §6, §7

Microsporum persicolor = conditions: Nannizzia persicolor, Micro.Persicolor; for activity at 10 µg/mL: 10µg/ml each product, read-out: % DE CROISSANCE; for inhibition at 2 µg/mL / inhibition at 10 µg/mL / inhibition at 20 µg/mL / inhibition at 50 µg/mL: read-out: inhibition de la croissance
Description: as §1, §2, §3, §4, §5, §6, §7

Trichophyton violaceum = conditions: Tric.Violaceum; for activity at 10 µg/mL: read-out: % DE CROISSANCE; for inhibition at 2 µg/mL / inhibition at 10 µg/mL / inhibition at 20 µg/mL / inhibition at 50 µg/mL: read-out: inhibition de la croissance
Description: as §1, §2, §3, §4, §5, §6, §7

Epidermophyton floccosum = conditions: Epid.Flocosum; for activity at 10 µg/mL: read-out: % DE CROISSANCE; for inhibition at 2 µg/mL / inhibition at 10 µg/mL / inhibition at 20 µg/mL / inhibition at 50 µg/mL: read-out: inhibition de la croissance
Description: as §1, §2, §3, §4, §5, §6, §7

Trichophyton soudanense = conditions: Tric.Soudanese; for activity at 10 µg/mL: read-out: % DE CROISSANCE; for inhibition at 2 µg/mL / inhibition at 10 µg/mL / inhibition at 20 µg/mL / inhibition at 50 µg/mL: read-out: inhibition de la croissance
Description: as §1, §2, §3, §4, §5, §6, §7

[3] = 144 h, J6, 20µg/ml each product
[4] = 240 h, J10, 20µg/ml each product
[5] = 336 h, J14, 20µg/ml each product
[6] = 144 h, J6, 10µg/ml each product
[7] = 240 h, J10, 10µg/ml each product
[8] = 336 h, J14, 10µg/ml each product

CCCCOCCOCCOCc1cc2c(cc1CCC)OCO2 [Piperonyl., pipéronyl butoxyde]
activity at 20 µg/mL ([1]; 0 h, J0, 20µg/ml each product): 0%
activity at 20 µg/mL ([1]; 96 h, J4, 20µg/ml each product): 0%
activity at 20 µg/mL [1, 3]: 25%
activity at 20 µg/mL [1, 4]: 60%
activity at 20 µg/mL [1, 5]: 65%
inhibition at 2 µg/mL ([1]; J+4, 2 µg/ml): 30%
inhibition at 10 µg/mL ([1]; J+4, 10 µg/ml): 10%
inhibition at 20 µg/mL ([1]; J+4, 20 µg/ml): 0%
inhibition at 50 µg/mL ([1]; J+4, 50 µg/ml): 0%
inhibition at 2 µg/mL ([1]; J+10, 2 µg/ml): 80%
inhibition at 10 µg/mL ([1]; J+10, 10 µg/ml): 60%
inhibition at 20 µg/mL ([1]; J+10, 20 µg/ml): 60%
inhibition at 50 µg/mL ([1]; J+10, 50 µg/ml): 0%
inhibition at 2 µg/mL ([1]; J+14, 2 µg/ml): 100%
inhibition at 10 µg/mL ([1]; J+14, 10 µg/ml): 70%
inhibition at 20 µg/mL ([1]; J+14, 20 µg/ml): 65%
inhibition at 50 µg/mL ([1]; J+14, 50 µg/ml): 0%
activity at 20 µg/mL (Microsporum canis; 0 h): 0%
activity at 20 µg/mL (Microsporum canis; 96 h): 0%
activity at 20 µg/mL (Microsporum canis; 144 h): 5%
activity at 20 µg/mL (Microsporum canis; 240 h): 45%
activity at 20 µg/mL (Microsporum canis; 336 h): 60%
inhibition at 2 µg/mL (Microsporum canis; J+4, 2 µg/ml): 20%
inhibition at 10 µg/mL (Microsporum canis; J+4, 10 µg/ml): 15%
inhibition at 20 µg/mL (Microsporum canis; J+4, 20 µg/ml): 0%
inhibition at 50 µg/mL (Microsporum canis; J+4, 50 µg/ml): 0%
inhibition at 2 µg/mL (Microsporum canis; J+10, 2 µg/ml): 80%
inhibition at 10 µg/mL (Microsporum canis; J+10, 10 µg/ml): 60%
inhibition at 20 µg/mL (Microsporum canis; J+10, 20 µg/ml): 45%
inhibition at 50 µg/mL (Microsporum canis; J+10, 50 µg/ml): 0%
inhibition at 2 µg/mL (Microsporum canis; J+14, 2 µg/ml): 100%
inhibition at 10 µg/mL (Microsporum canis; J+14, 10 µg/ml): 80%
inhibition at 20 µg/mL (Microsporum canis; J+14, 20 µg/ml): 60%
inhibition at 50 µg/mL (Microsporum canis; J+14, 50 µg/ml): 0%
activity at 20 µg/mL ([2]; 0 h, J0, 20µg/ml each product): 0%
activity at 20 µg/mL ([2]; 96 h, J4, 20µg/ml each product): 5%
activity at 20 µg/mL [2, 3]: 25%
activity at 20 µg/mL [2, 4]: 60%
activity at 20 µg/mL [2, 5]: 70%
inhibition at 2 µg/mL ([2]; J+4, 2 µg/ml): 30%
inhibition at 10 µg/mL ([2]; J+4, 10 µg/ml): 15%
inhibition at 20 µg/mL ([2]; J+4, 20 µg/ml): 5%
inhibition at 50 µg/mL ([2]; J+4, 50 µg/ml): 0%
inhibition at 2 µg/mL ([2]; J+10, 2 µg/ml): 80%
inhibition at 10 µg/mL ([2]; J+10, 10 µg/ml): 70%
inhibition at 20 µg/mL ([2]; J+10, 20 µg/ml): 60%
inhibition at 50 µg/mL ([2]; J+10, 50 µg/ml): 0%
inhibition at 2 µg/mL ([2]; J+14, 2 µg/ml): 100%
inhibition at 10 µg/mL ([2]; J+14, 10 µg/ml): 80%
inhibition at 20 µg/mL ([2]; J+14, 20 µg/ml): 70%
inhibition at 50 µg/mL ([2]; J+14, 50 µg/ml): 0%
activity at 10 µg/mL (Microsporum persicolor; 0 h, J0): 0%
activity at 10 µg/mL (Microsporum persicolor; 96 h, J4): 0%
activity at 10 µg/mL (Microsporum persicolor; 144 h, J6): 20%
activity at 10 µg/mL (Microsporum persicolor; 240 h, J10): 40%
activity at 10 µg/mL (Microsporum persicolor; 336 h, J14): 75%
inhibition at 2 µg/mL (Microsporum persicolor; J+4): 20%
inhibition at 10 µg/mL (Microsporum persicolor; J+4): 0%
inhibition at 20 µg/mL (Microsporum persicolor; J+4): 0%
inhibition at 50 µg/mL (Microsporum persicolor; J+4): 0%
inhibition at 2 µg/mL (Microsporum persicolor; J+10): 85%
inhibition at 10 µg/mL (Microsporum persicolor; J+10): 40%
inhibition at 20 µg/mL (Microsporum persicolor; J+10): 20%
inhibition at 50 µg/mL (Microsporum persicolor; J+10): 0%
inhibition at 2 µg/mL (Microsporum persicolor; J+14): 100%
inhibition at 10 µg/mL (Microsporum persicolor; J+14): 75%
inhibition at 20 µg/mL (Microsporum persicolor; J+14): 25%
inhibition at 50 µg/mL (Microsporum persicolor; J+14): 0%
activity at 10 µg/mL (Trichophyton violaceum; 0 h, J0, 10µg/ml each product): 0%
activity at 10 µg/mL (Trichophyton violaceum; 96 h, J4, 10µg/ml each product): 0%
activity at 10 µg/mL (Trichophyton violaceum; [6]): 15%
activity at 10 µg/mL (Trichophyton violaceum; [7]): 35%
activity at 10 µg/mL (Trichophyton violaceum; [8]): 35%
inhibition at 2 µg/mL (Trichophyton violaceum; J+4, 2 µg/ml): 25%
inhibition at 10 µg/mL (Trichophyton violaceum; J+4, 10 µg/ml): 0%
inhibition at 20 µg/mL (Trichophyton violaceum; J+4, 20 µg/ml): 0%
inhibition at 50 µg/mL (Trichophyton violaceum; J+4, 50 µg/ml): 0%
inhibition at 2 µg/mL (Trichophyton violaceum; J+10, 2 µg/ml): 90%
inhibition at 10 µg/mL (Trichophyton violaceum; J+10, 10 µg/ml): 35%
inhibition at 20 µg/mL (Trichophyton violaceum; J+10, 20 µg/ml): 15%
inhibition at 50 µg/mL (Trichophyton violaceum; J+10, 50 µg/ml): 0%
inhibition at 2 µg/mL (Trichophyton violaceum; J+14, 2 µg/ml): 100%
inhibition at 10 µg/mL (Trichophyton violaceum; J+14, 10 µg/ml): 35%
inhibition at 20 µg/mL (Trichophyton violaceum; J+14, 20 µg/ml): 25%
inhibition at 50 µg/mL (Trichophyton violaceum; J+14, 50 µg/ml): 0%
activity at 10 µg/mL (Epidermophyton floccosum; 0 h, J0, 10µg/ml each product): 0%
activity at 10 µg/mL (Epidermophyton floccosum; 96 h, J4, 10µg/ml each product): 0%
activity at 10 µg/mL (Epidermophyton floccosum; [6]): 10%
activity at 10 µg/mL (Epidermophyton floccosum; [7]): 45%
activity at 10 µg/mL (Epidermophyton floccosum; [8]): 70%
inhibition at 2 µg/mL (Epidermophyton floccosum; J+4, 2 µg/ml): 15%
inhibition at 10 µg/mL (Epidermophyton floccosum; J+4, 10 µg/ml): 0%
inhibition at 20 µg/mL (Epidermophyton floccosum; J+4, 20 µg/ml): 0%
inhibition at 50 µg/mL (Epidermophyton floccosum; J+4, 50 µg/ml): 0%
inhibition at 2 µg/mL (Epidermophyton floccosum; J+10, 2 µg/ml): 90%
inhibition at 10 µg/mL (Epidermophyton floccosum; J+10, 10 µg/ml): 45%
inhibition at 20 µg/mL (Epidermophyton floccosum; J+10, 20 µg/ml): 25%
inhibition at 50 µg/mL (Epidermophyton floccosum; J+10, 50 µg/ml): 0%
inhibition at 2 µg/mL (Epidermophyton floccosum; J+14, 2 µg/ml): 100%
inhibition at 10 µg/mL (Epidermophyton floccosum; J+14, 10 µg/ml): 70%
inhibition at 20 µg/mL (Epidermophyton floccosum; J+14, 20 µg/ml): 30%
inhibition at 50 µg/mL (Epidermophyton floccosum; J+14, 50 µg/ml): 0%
activity at 10 µg/mL (Trichophyton soudanense; 0 h, J0, 10µg/ml each product): 0%
activity at 10 µg/mL (Trichophyton soudanense; 96 h, J4, 10µg/ml each product): 0%
activity at 10 µg/mL (Trichophyton soudanense; [6]): 10%
activity at 10 µg/mL (Trichophyton soudanense; [7]): 10%
activity at 10 µg/mL (Trichophyton soudanense; [8]): 25%
inhibition at 2 µg/mL (Trichophyton soudanense; J+4, 2 µg/ml): 25%
inhibition at 10 µg/mL (Trichophyton soudanense; J+4, 10 µg/ml): 0%
inhibition at 20 µg/mL (Trichophyton soudanense; J+4, 20 µg/ml): 0%
inhibition at 50 µg/mL (Trichophyton soudanense; J+4, 50 µg/ml): 0%
inhibition at 2 µg/mL (Trichophyton soudanense; J+10, 2 µg/ml): 80%
inhibition at 10 µg/mL (Trichophyton soudanense; J+10, 10 µg/ml): 10%
inhibition at 20 µg/mL (Trichophyton soudanense; J+10, 20 µg/ml): 0%
inhibition at 50 µg/mL (Trichophyton soudanense; J+10, 50 µg/ml): 0%
inhibition at 2 µg/mL (Trichophyton soudanense; J+14, 2 µg/ml): 100%
inhibition at 10 µg/mL (Trichophyton soudanense; J+14, 10 µg/ml): 25%
inhibition at 20 µg/mL (Trichophyton soudanense; J+14, 20 µg/ml): 0%
inhibition at 50 µg/mL (Trichophyton soudanense; J+14, 50 µg/ml): 0%
